Measurements reported in patent US20230190761A1, “METHYLENE BLUE STABILIZED MRNA COMPOSITIONS” (ModernaTX, Inc., priority 2020, published 2023).
“And” between values parts separate entries of the source, which are not always exact repeats. Equal values may be shown once. “Also recorded” adds a separate entry of the source.

Key:
[1] = molecular target: mRNA; assay: ITC of dye-mRNA interaction; format: binding
[2] = tested on: mRNA-LNP; assay: DOE study of solution composition with and without methylene blue, main peak purity by RP-HPLC; format: physicochemical; settings: 2 mM methylene blue, 40° C. ~1 week
Text: To broadly evaluate the effect of methylene blue under a large number of systematically varied solution conditions, a design of experiment (DOE) approach was utilized.

[3] = tested on: mRNA encapsulated within LNPs; assay: mRNA-LNP stability with thionine or methylene blue, main peak purity by fragmentation analysis; format: physicochemical; settings: mRNA-LNP with incremental dye 0.01-1.5 mM, 3 weeks at room temperature and 40° C., relative to no dye
Text: (§1) mRNA purity can be determined by reverse phase high-performance liquid chromatography (RP-HPLC) size based separation. This method can be used to assess mRNA integrity by a length-based gradient RP separation and UV detection of RNA at 260 nm. As used herein “main peak” or “main peak purity” refers to the RP-HPLC signal detected from mRNA that corresponds to the full size mRNA molecule loaded within a given LNP formulation. mRNA purity can also be assessed by fragmentation analysis. Fragmentation analysis (FA) is a method by which nucleic acid (e.g., mRNA) fragments can be analyzed by capillary electrophoresis. Fragmentation analysis involves sizing and quantifying nucleic acids (e.g., mRNA), for example by using an intercalating dye coupled with an LED light source. Such analysis may be completed, for example, with a Fragment Analyzer from Advanced Analytical Technologies, Inc.
A study was performed to compare the effects of thionine, a phenothiazinium dye that permeates LNPs, with methylene blue which permeates LNPs to a lesser extent. A series of mRNA-LNP samples were prepared containing incremental levels of each dye as detailed in Table 1. These samples were incubated under two temperature conditions of room temperature and 40 C for 3 weeks prior to analysis.

[4] = tested on: mRNA-LNP; assay: DLS characterization of mRNA-LNP physical stability in presence of methylene blue; format: physicochemical
Text: Particle size (e.g., particle diameter) can be determined by Dynamic Light Scattering (DLS). DLS measures a hydrodynamic diameter. Smaller particles diffuse more quickly, leading to faster fluctuations in the scattering intensity and shorter decay times for the autocorrelation function. Larger particles diffuse more slowly, leading to slower fluctuations in the scattering intensity and longer decay times in the autocorrelation function.
(§2) In view of the surprising and somewhat counter-intuitive finding that methylene blue enhanced stability of mRNA-LNP formulations, additional experimentation was conducted. The stability of mRNA-LNPs in the presence of increasing levels of methylene blue was investigated upon incubation at 5° C., 25° C. or 40° C. for 10 days. […] In addition to chemical stability, a careful examination of the possible impact of methylene blue on the physical state of the LNP was performed using dynamic light scattering (DLS). This technique is exquisitely sensitive to tiny changes in hydrodynamic nanoparticle size, especially with respect to the formation of larger aggregates known to be a common physical degradation mode of many LNPs.
After the 3 week incubation, samples were analyzed by dynamic light scattering (DLS) to characterize the hydrodynamic diameters of LNPs.
Samples were measured by dynamic light scattering (DLS) in PBS after being filtered through 0.8 μm filters to remove large particulates.

[5] = tested on: mRNA; assay: Differential scanning calorimetry of mRNA with methylene blue; format: physicochemical
Method: To test the effect of methylene blue on folding and intramolecular hybridization of mRNA, differential scanning calorimetry (DSC) was conducted on samples of mRNA containing no methylene blue, 50 μM methylene blue, or 100 μM methylene blue. […] At higher methylene blue concentrations (approximately 0.5 mM), precipitation of mRNA occurs, but at the concentrations of this experiment the mRNA-dye complex remains soluble. It is notable that the sharp transitions at ˜74° C. and 80° C. are not affected by the presence of dye, whereas there is a massive effect on the least thermally stable transitions occurring in the <60° C. region, shown by the large rightward shift of the curves with the addition of methylene blue. By comparison, therapeutic protein stabilization strategies commonly involve screening of excipient effects on thermal unfolding, however, the thermal shifts observed for optimized protein formulations typically involve thermal shifts of only a few degrees.
The DSC thermogram show the effects on the thermal unfolding profile of mRNA in the presence or absence of […] methylene blue. When the methylene blue-containing sample was dialyzed to remove dye, the resulting thermogram corresponded closely to that of the original no-dye sample. […] All the fine details of the thermal unfolding profile were restored post-dialysis, indicating a restoration of the original structure-function of the mRNA.

[6] = tested on: lyophilized mRNA-LNP; assay: Stability of lyophilized mRNA-LNP with methylene blue (RP-HPLC); format: physicochemical; settings: lyophilized mRNA-LNP powder with 1 mM methylene blue, 1 week at 40° C.
Method: To evaluate whether methylene blue could have a stabilization effect on lyophilized powder formulations of mRNA-LNP, studies were performed to compare the effect of 1 mM methylene blue on loss of purity of a lyophilized mRNA-LNP. In this experiment methylene blue was added to LNP immediately prior to lyophilization. The resulting powders (shown in FIG. 15) were stored at −80° C., 5° C. or 40° C. with or without methylene blue.

[7] = tested on: mRNA in LNP formulations; assay: mRNA-LNP purity by RP-HPLC and fragment analysis, 40° C. 12 days, light vs dark; format: physicochemical
Method: As detailed in this example, samples are labeled as follows: A=0 mM methylene blue; B=0.5 mM methylene blue; C=1 mM methylene blue; D=1.5 mM methylene blue; and E=2.0 mM methylene blue.
After incubating samples at 40° C. for 12 days, either protected from light or unprotected, fragmentation analysis was conducted to evaluate the presence of lipid-RNA adducts.

[8] = tested on: mRNA within LNP compositions; assay: mRNA integrity by fragmentation analysis after 10 days at 5, 25 or 40° C. with methylene blue; format: physicochemical; settings: for mRNA stability by fragmentation analysis: 0.1-6 mM methylene blue
Text: as §1, §2

dissociation constant for the dye-mRNA interaction (ITC) [1]: μm dissociation constant
average purity of the 14 samples ([2]; 14 buffer/pH/NaCl conditions): 60±6%
main peak mRNA purity (range over samples 15-28) ([2]; Tris or phosphate buffer pH 7.0-8.5, 0 or 150 mM NaCl, RP-HPLC): 50-70%
hydrodynamic size or size distribution (polydispersity index) of LNP by DLS ([4]; up to 2.0 mM methylene blue, 5 months refrigerated storage): no significant impact
methylene blue concentration with appreciable impact to mRNA conformational stability (DSC) [5]: ~10 µM
methylene blue concentration giving dramatic global changes in overall mRNA structure (DSC) ([5]; 0.3 μM mRNA, 32.5 mM sodium acetate, pH 5.0): ≥ 367.8 µM
folded stability of mRNA (DSC thermogram) ([5]; 50 μM or 100 μM methylene blue vs no methylene blue): enormous enhancement of folded stability
reversibility of methylene blue binding to mRNA (DSC after dialysis) ([5]; 100 mM methylene blue, dialyzed to remove dye): reversible
lowest methylene blue concentration affecting the folded structure of mRNA (DSC) ([5]; mRNA at 0.3 μM): 11.3 µM
methylene blue concentration at which precipitation of mRNA occurs ([5]; mRNA in solution): approximately 0.5 mM
main peak purity [6]: 30% and 33%
mRNA stability by fragmentation analysis ([8]; 5° C.): slight trend in the opposite direction
methylene blue concentration range at which stabilizing effect reached a maximum ([8]; 40° C., fragmentation analysis): 1.5 to 3.0 mM
mRNA stability by fragmentation analysis ([8]; room temperature): protective effect
SMILES: CN(C)c1ccc2nc3ccc(N(C)C)cc3[s+]c2c1 [methylene blue]
% main peak purity by fragmentation analysis (mRNA stability) [3]: stabilized it; also recorded: significantly improved mRNA stability relative to the no-dye control
LNP size distributions and average hydrodynamic diameters by DLS ([4]; 0.5-2.0 mM methylene blue, 3 weeks refrigerated storage): does not have an impact on the overall lipid nanoparticle structure
hydrodynamic size / physical stability of the LNP by DLS ([4]; up to 6 mM methylene blue, 10 days at 5° C., 25° C. and 40° C.): no significant effect on hydrodynamic size of the LNP; also recorded: no impact on the physical stability of the mRNA-LNP
mRNA stability by RP-HPLC and fragmentation analysis ([7]; 12 days, protected from light, 0.5-2.0 mM methylene blue, vs −80 C controls): enhanced the stability of mRNA in LNP formulations
mRNA degradation by RP-HPLC and fragmentation analysis ([7]; 12 days, unprotected from light, samples B-E (0.5-2.0 mM methylene blue)): more mRNA degradation than samples stored protected from light or those without methylene blue
adduct formation ([7]; protected from light): did not have a detrimental effect on adduct formation
